Entries after “also recorded” stand apart in the source; their conditions may differ.
Assays:
pig RXFP1 = experiment: CRE-Luc BacMam luciferase assay, pig RXFP1; assay type: cell-based, pig (Sus scrofa); set-up: key to Activation of RXFP1 receptors: *: Weak; **: intermediate; ***: strong activation of the receptor
Method: (§1) GloResponse™ CRE-luc2P HEK293T cells stably transfected with cAMP response element-driven luciferase (CRE-Luc) reporter (Promega, Madison, WI, USA) were transduced with human, macaque, pig, and mouse RXFP1 expression BacMam vectors according to the manufacturer’s protocol (Invitrogen) and incubated at room temperature for 2 h in the dark with occasional mixing. The volume of the cell culture was adjusted to 1000 cells/μl with DMEM + 10% FBS. Cells (3 μl, 3000 cells) were plated on 1536-well white solid-bottom TC plates and incubated overnight at 37C°, 5% CO2. Four hundred […] Ro 20-1724 (Sigma-Aldrich, St. Louis, MO, USA) in PBS (1 μl) was added in each well. The cells were treated with serial dilutions of either Forskolin (Sigma-Aldrich), ML290 ([5]) or porcine RLN at final concentrations’ range (57 μM–3.5 pM) for Forskolin and ML290, and (8.7 μM–1.8 pM, or 57 ng/μl–0.012 pg/μl] for RLN. After 2 h stimulation at 37°C, 4 μl of detection reagent from Amplite™ Luciferase reporter gene assay kit (AAT Bioquest, Sunnyvale, CA, USA) was added as a mix of 90% Component A, 5% Component C, and 5% Component D, and incubated at room temperature for 5 min. Luminescent signal was measured on Viewlux uHTS Microplate Imager (PerkinElmer, Santa Clara, CA, USA). The data were processed using GraphPad Software (San Diego, CA, USA).

human RXFP1 = experiment: CRE-Luc BacMam luciferase assay, human RXFP1; assay type: cell-based; set-up: key to Activation of RXFP1 receptors: *: Weak; **: intermediate; ***: strong activation of the receptor
Method: as §1

[1] = tested on: modified mouse receptor with humanized ECL3; settings: ECL3 amino acids mutated, ref [5]; cited from earlier work
From the text: The rabbit and guinea pig receptors provide new structural templates for analysis of RLN and ML290 activation of RXFP1. […] Indeed, it was shown that primary binding of RLN to RXFP1 involve sites within LRR4, 5, 6, and 8 ([2]). In contrast, the 7TM region of RXFP1, which is the site of allosteric small-molecule agonist binding, is functional in rabbits. The opposite was true for guinea pig RXFP1: despite having the same ECL3 sequence as pig ...

mouse RXFP1 = experiment: CRE-Luc BacMam luciferase assay, mouse RXFP1; assay type: cell-based; settings: CRE-luc HEK293T, 2 h, highest concentrations of ML290 (range 57 μM–3.5 pM)
Method: as §1

HR-RXFP1 = experiment: Direct HTRF cAMP assay, human/rabbit chimera HR-RXFP1; assay type: cell-based; settings: transiently transfected HEK293T, % of hRXFP1 activation by 10 nM RLN
Method: (§2) The human, mouse, macaque, and pig RXFP1 cDNA constructs in baculovirus BacMam mammalian expression vector (Invitrogen, Carlsbad, CA, USA) were synthesized at the Eukaryotic Expression Group-Protein Expression laboratory (NCI, Frederick, MD, USA). The PCR primers for RT-PCR were designed to cover the full-length sequence of the open reading frame (ORF). PCR amplifications were performed with PfuUltra High-Fidelity DNA polymerase (Agilent Technologies, Santa Clara, CA, USA). Guinea pig RXFP1 (G-RXFP1) was amplified from guinea pig ovarian cDNA (Zyagen, San Diego, CA, USA). Rabbit RXFP1 (R1-RXFP1 and R2-RXFP1) cDNAs were amplified from rabbit uterus cDNA (Zyagen). All cloning was performed using the In-Fusion® HD Cloning Kit (Clontech Laboratories, Mountain View, CA, USA). Rabbit and guinea pig RXFP1s were cloned into pCR3.1 mammalian expression vector (Invitrogen). […]
(§3) Direct measurement of cAMP production was performed using the HTRF cAMP HiRange kit (CisBio, Bedford, MA, USA). […] The plates were incubated for 60 min at room temperature, and the signal was read on a FLUOstar Omega (BMG Labtech, Cary, NC, USA) plate reader. cAMP levels were calculated according to the manufacturer’s instructions against a standard curve. […]

GH-RXFP1 = experiment: Direct HTRF cAMP assay, guinea pig/human chimera GH-RXFP1; assay type: cell-based; set-up: key to Activation of RXFP1 receptors: *: Weak; **: intermediate; ***: strong activation of the receptor
Method: as §2, §3

R1H-RXFP1 and R2H-RXFP1 = experiment: Direct HTRF cAMP assay, rabbit/human chimeras R1H- and R2H-RXFP1; assay type: cell-based; set-up: key to Activation of RXFP1 receptors: *: Weak; **: intermediate; ***: strong activation of the receptor
Method: as §2, §3

macaque RXFP1 = experiment: CRE-Luc BacMam luciferase assay, macaque RXFP1; assay type: cell-based, rhesus macaque (Macaca mullata); set-up: key to Activation of RXFP1 receptors: *: Weak; **: intermediate; ***: strong activation of the receptor
Method: as §1

mouse RXFP1 receptor = settings: direct cAMP HTRF assay, ref [5]; cited from earlier work
R1-RXFP1 = experiment: Indirect CRE-β-gal reporter cAMP assay, rabbit R1-RXFP1; assay type: cell-based, European rabbit (Oryctolagus cuniculus); settings: 6 h at 37°C, % of 5 μM Forskolin response
Method: For the indirect cAMP assay, changes in cAMP signaling were measured by co-transfection of receptors with a CRE-β-galactosidase (CRE-β-gal) reporter construct ([11]). Cells were stimulated for 6 h at 37°C with RLN peptides or ML290 at various concentrations. A non-linear regression sigmoidal dose–response curve was then produced using GraphPad Prism. All experiments were conducted at least three times with three to four replicates each time.

R1-RXFP1 and R2-RXFP1 = experiment: Direct HTRF cAMP assay, rabbit R1-RXFP1 and R2-RXFP1; assay type: cell-based, European rabbit (Oryctolagus cuniculus); set-up: key to Activation of RXFP1 receptors: *: Weak; **: intermediate; ***: strong activation of the receptor
Method: The human, mouse, macaque, and pig RXFP1 cDNA constructs in baculovirus BacMam mammalian expression vector (Invitrogen, Carlsbad, CA, USA) were synthesized at the Eukaryotic Expression Group-Protein Expression laboratory (NCI, Frederick, MD, USA). The PCR primers for RT-PCR were designed to cover the full-length sequence of the open reading frame (ORF). PCR amplifications were performed with PfuUltra High-Fidelity DNA polymerase (Agilent Technologies, Santa Clara, CA, USA). Guinea pig RXFP1 (G-RXFP1) was amplified from guinea pig ovarian cDNA (Zyagen, San Diego, CA, USA). Rabbit RXFP1 (R1-RXFP1 and R2-RXFP1) cDNAs were amplified from rabbit uterus cDNA (Zyagen). All cloning was performed using the In-Fusion® HD Cloning Kit (Clontech Laboratories, Mountain View, CA, USA). Rabbit and guinea pig RXFP1s were cloned into pCR3.1 mammalian expression vector (Invitrogen). In order to study RXFP1 surface expression, rabbit cDNAs were cloned into pcDNA3.1™/Zeo+ mammalian expression vector (Invitrogen), which contained an N-terminal FLAG-tag and a bovine prolactin signal sequence (3). […] To make chimeric clones, the human, guinea pig, and rabbit plasmid were used as templates to produce PCR amplicons, which were then used for overlapping PCR and subsequent cloning with the In-Fusion kit. The chimeric guinea pig/human GH-RXFP1 construct contains guinea pig RXFP1 cDNA (G-RXFP1, 1–1499 bp) encoding the ectodomain, TM1, TM2, and part of TM3 (amino acids 1–499 of G-RXFP1), and human RXFP1 (hRXFP1, 1509–2274 bp) encoding TM3 to the C-terminal tail of the receptor (amino acids 503–757 of hRXFP1) (Figure 1A). The recombinant chimeric human–rabbit HR-RXFP1 was made with the 5′-part of the hRXFP1 sequence (1–972 bp, LDLa-LRR9, 1–324 aa), with the remainder being the rabbit RXFP1 sequence (973–2277 bp, LRR9-C-terminal tail, 325–759 aa) (Figure 1A). The recombinant chimeric rabbit–human R1H-RXFP1 or R2H-RXFP1 contains the N-terminal rabbit RXFP1 sequence (1–972 bp for R1-RXFP1 or 975 bp for R2-RXFP1), with the remaining sequence being hRXFP1 (973–2274) (Figure 1A). R1- and R2-RXFP1 denote two variants of rabbit RXFP1 cDNA. All numbers correspond to the full-length cDNAs with the first nucleotide of the ORF.
HEK293T cell transient transfections were performed using Lipofectamine 2000 transfection reagent (Life Technologies, Grand Island, NY, USA) according to the manufacturer’s instructions. Cells transiently expressing the RXFP1 receptors were used within 48 h of transfection. Each construct was tested at least three times. For cell-conditioned media stimulation, HEK293T cells were transfected with the rabbit RLN construct (SQ10) or an empty pCR3.1 vector, and cells were cultured for 24 h. The media was used to stimulate HEK293T cells transfected with the RXFP1 receptors.
Direct measurement of cAMP production was performed using the HTRF cAMP HiRange kit (CisBio, Bedford, MA, USA). HEK293T cells transiently transfected with different RXFP1 receptors were stimulated with various concentrations of RLN peptides or ML290 for 60 min at 37°C, 5% CO2, after which, two HTRF detection reagents (diluted according to assay kit directions in HTRF lysis buffer) were added. The plates were incubated for 60 min at room temperature, and the signal was read on a FLUOstar Omega (BMG Labtech, Cary, NC, USA) plate reader. cAMP levels were calculated according to the manufacturer’s instructions against a standard curve. Statistical processing of the data was performed using GraphPad Prism software.

- Activation of RXFP1 receptors (pig RXFP1; Pig receptor, summary grade, HEK293T cells): ***
- Activation of RXFP1 receptors (human RXFP1; Human receptor, summary grade, HEK293T cells): ***
- cAMP response (luciferase activity) (human RXFP1; human RXFP1, CRE-luc HEK293T, 2 h, ML290 57 μM–3.5 pM): responded strongly to ML290 stimulation
- Activation of RXFP1 receptors (GH-RXFP1; Guinea pig/human chimera, summary grade, HEK293T cells): *
- Activation of RXFP1 receptors (R1H-RXFP1 and R2H-RXFP1; Rabbit 1(2)/human chimera, summary grade, HEK293T cells): **
- Activation of RXFP1 receptors (macaque RXFP1; Macaque receptor, summary grade, HEK293T cells): ***
- Activation of RXFP1 receptors (R1-RXFP1 and R2-RXFP1; Rabbit 1 and 2, summary grade, HEK293T cells): **
SMILES: CC(C)Oc1ccccc1C(=O)Nc1ccccc1C(=O)Nc1cccc(S(=O)(=O)C(F)(F)F)c1 [ML290]
- cAMP response (luciferase activity) (pig RXFP1; pig RXFP1, CRE-luc HEK293T, 2 h, ML290 57 μM–3.5 pM, RLN 8.7 μM–1.8 pM): responded to relaxin and ML290 treatment; also recorded: responded strongly to ML290 stimulation; also recorded: fully activated by RLN and ML290
- activation of mouse receptor with humanized ECL3 [1]: activated by ML290
- cAMP response (luciferase activity) (mouse RXFP1): significant increase in luciferase activity; also recorded: activation of the CRE-reporter was observed with high-dose ML290 treatment on the mouse receptor
- cAMP response (HR-RXFP1): all three receptors respond to ML290
- cAMP response (GH-RXFP1; GH-RXFP1, transiently transfected HEK293T, HTRF, 60 min at 37°C, % of 10 μM Forskolin response): only partially restored ML290 activation; also recorded: ML290 responsiveness, albeit to a much lower level than in hRXFP1 (p < 0.001); also recorded: efficacy of ML290 stimulation was improved, however, it was still lower than in hRXFP1-transfected cells
- cAMP response (R1H-RXFP1 and R2H-RXFP1; R1H- and R2H-RXFP1, HTRF, transiently transfected HEK293T, % of hRXFP1 activation by 10 nM RLN): the level of activation of R1H- and R2H-RXFP1 was higher than that of R1-, R2-, or HR-RXFP1-transfected cells
- cAMP response (luciferase activity) (macaque RXFP1; macaque RXFP1, CRE-luc HEK293T, 2 h, ML290 57 μM–3.5 pM, RLN 8.7 μM–1.8 pM): responded to relaxin and ML290 treatment; also recorded: responded strongly to ML290 stimulation; also recorded: fully activated by RLN and ML290
- activation of mouse RXFP1 (cAMP) (mouse RXFP1 receptor): does not activate the mouse receptor; also recorded: did not see an increase of cAMP; also recorded: no activation being seen in the direct HTRF cAMP assay; also recorded: did not activate the mouse RXFP1 receptor
- cAMP response (ML290), CRE-β-gal (R1-RXFP1): comparable to hRXFP1
- cAMP response, FLAG-tagged receptors (R1-RXFP1 and R2-RXFP1; FLAG-tagged R1- and R2-RXFP1, HTRF, 60 min, % of hRXFP1 activation by 10 nM RLN): produced a cAMP increase in cells transfected with both rabbit receptors, albeit with lesser efficacy than hRXFP1
- statistical significance of response versus hRXFP1 (R1-RXFP1 and R2-RXFP1; R1- and R2-RXFP1, 10 nM relaxin peptides or 5 μM ML290, HTRF): statistically significant compared to hRXFP1, ***p < 0.001
- cAMP response to 5 μM ML290 (R1-RXFP1 and R2-RXFP1; R1- and R2-RXFP1, 5 μM ML290, HTRF, transiently transfected HEK293T): responded to 5 μM of ML290
- cAMP response (R1-RXFP1 and R2-RXFP1; R1-RXFP1 and R2-RXFP1, transiently transfected HEK293T, data not shown): generated an increase in cAMP
- activation of rabbit RXFP1 (summary) (R1-RXFP1 and R2-RXFP1; rabbit RXFP1 variants, cAMP production, abstract/discussion): activated by ML290
